Paper PMC9265729, “A Genetic Toxicology Study of the Rapid Detection of Nitrosamine Compounds by the rpsL Gene Mutation Assay” (Foods, 2022)
Values joined by “and” are separate entries in the source; they are usually repeats but may differ in a detail not shown here. Identical values can stand only once.

Assays:
rpsL gene [1] = assay: rpsL gene mutation rate in the PCR amplification system (Pfu DNA polymerase, mutagen added directly to the PCR system); type: biochemical, Escherichia coli; details: for Mutation Rate of rpsL in PCR (mean ± SD): mean of 4 experiments; for Mutation Rate of rpsL in PCR (single experiment): single replicate
Description: The PCR system was as follows: 10 × PCR buffer (Mg^2+) 5 μL, dNTP 2 μL, pMOL21 plasmid template 1 μL, upstream and downstream primers 1 μL, Pfu DNA polymerase 0.5 μL, ddH2O supplemented to […] (nitrosamine compounds were directly added to the PCR system).
The PCR program was as follows: predenaturation at 95 °C for 5 min, denaturation at 94 °C for 30 s, annealing at 55 °C for 30 s, extension at 72 °C for 120 s, 25 cycles, full extension at 72 °C for 10 min, and storage at 16 °C.
The PCR products were recovered and ligated with restriction enzymes (MscI, BamH1), transformed into MF101 strains, plated on ampicillin-containing plates to determine the total number of transformed cells, and plated on ampicillin- and streptomycin-containing plates to identify rpsL gene-mutated colonies.
We measured the mutation rate of mutagen-induced rpsL gene mutations in the PCR system. The mutagen was added directly to the PCR system to determine the mutation rate of the rpsL gene during DNA amplification.

rpsL gene [2] = assay: rpsL gene mutation rate at the cellular level (E. coli MF101 + pMOL21 cultured with mutagen, Amp/Str plate selection); details: for Mutation Rate of rpsL (mean ± SD): E. coli MF101 + pMOL21, mean of 4 experiments; for Mutation Rate of rpsL (single experiment): E. coli MF101 + pMOL21, single replicate; for genotoxicity / mutagenicity in words: NDEA, NDPA at 10 ppm, EB at lower concentrations
Description: The mutagenicity detection of nitrosamine compounds was carried out using the rpsL gene on plasmid pMOL21 as a selectable marker. The ribosomal protein S12 encoded by the rpsL gene can form a complex with streptomycin and enhance the ability of streptomycin to bind to 16 S rRNA, thereby preventing the initiation of […]. When the rpsL gene is mutated, the interaction between 16 S rRNA and streptomycin is disrupted, resulting in cell resistance to streptomycin.
We adopted Escherichia coli MF101, whose rpsL gene is mutated, so this strain has streptomycin resistance. The plasmid pMOL21 contains ampicillin as a selection marker and the correct rpsL gene. […] For specific information on strains and plasmids, please refer to [14].
E. coli MF101 + pMOL21 were cultured with different concentrations (10 ppm, 100 ppm, or 1000 ppm) of NDEA or NDPA. Ten hours after growth, the strains were collected and spread on plates containing ampicillin (Amp^+, 50 μg/mL) to determine the total number of transformed cells and spread on plates containing ampicillin and streptomycin (Amp^+, Str^+, 50 μg/mL) to determine the number of colonies with rpsL gene mutations. The mutation rate is the ratio of the number of mutant colonies to the total number of colonies. […] The experimental data and images were statistically analyzed by Origin2018 software.

rpsL gene [3] = assay: rpsL gene mutation rate in the RCA reaction system (phi29 DNA polymerase, mutagen added to the amplification reaction); type: biochemical, Escherichia coli; details: for Mutation Rate of rpsL in the RCA reaction (mean ± SD): mean of 4 experiments; for Mutation Rate of rpsL in the RCA reaction (single experiment): single replicate
Description: Heat denaturation of samples and annealing reaction system of primers and plasmids: 1 μL of 10 × phi29 DNA polymerase reaction buffer, 2.5 μL of 100 μM random primers, 1 μL of plasmid pMOL21 to be amplified, and 4.3 μL of ddH2O. The above system was heated at 95 °C for 3 min and then placed on ice for 15 min.
Amplification reaction system: 10 mM dNTP 0.5 μL, 100 × BSA 0.2 μL, phi29 DNA polymerase 0.5 μL to the above reaction solution (nitrosamine compounds or EB are added to the amplification reaction system), and then incubated at 30 °C overnight.
Heat-inactivated phi29 DNA polymerase: heat at 65 °C for 10 min.
We then determined the mutation rate of mutagen-induced rpsL gene mutations in the RCA system. In this experiment, we adopted the method of directly adding a mutagen to the RCA amplification reaction solution to provide a direct mutagenic environment for the amplification of the rpsL gene. This method avoids the possibility of affecting the mutagenicity of NDEA, NDPA, or EB during thermal denaturation.

[4] = 100 ppm mutagen in RCA reaction
[5] = 1000 ppm mutagen in RCA reaction

## CCN(CC)N=O [NDEA, N-diethylnitrosamine]
rpsL gene [1]; 10 ppm mutagen in PCR system
  Mutation Rate of rpsL in PCR (mean ± SD): 2.83 10^−6 and 2.83 ± 1.197 10^−6
  Mutation Rate of rpsL in PCR (single experiment): 1.28 10^−6 and 2.65 10^−6 and 4.11 10^−6 and 3.30 10^−6
rpsL gene [1]; 100 ppm mutagen in PCR system
  Mutation Rate of rpsL in PCR (mean ± SD): 4.51 10^−6 and 4.51 ± 1.314 10^−6
  Mutation Rate of rpsL in PCR (single experiment): 3.70 10^−6 and 3.09 10^−6 and 5.47 10^−6 and 5.77 10^−6
rpsL gene [1]; 1000 ppm mutagen in PCR system
  Mutation Rate of rpsL in PCR (mean ± SD): 5.02 10^−6 and 5.02 ± 1.890 10^−6
  Mutation Rate of rpsL in PCR (single experiment): 3.16 10^−6 and 3.68 10^−6 and 6.23 10^−6 and 7.03 10^−6
rpsL gene [2]; 10 ppm mutagen
  Mutation Rate of rpsL (mean ± SD): 2.42 10^−6 and 2.42 ± 0.717 10^−6
  Mutation Rate of rpsL (single experiment): 1.44 10^−6 and 2.34 10^−6 and 2.95 10^−6 and 2.96 10^−6
rpsL gene [2]; 100 ppm mutagen
  Mutation Rate of rpsL (mean ± SD): 3.76 10^−6 and 3.76 ± 0.852 10^−6
  Mutation Rate of rpsL (single experiment): 3.32 10^−6 and 2.81 10^−6 and 4.23 10^−6 and 4.69 10^−6
rpsL gene [2]; 1000 ppm mutagen
  Mutation Rate of rpsL (mean ± SD): 4.82 10^−6 and 4.82 ± 1.738 10^−6
  Mutation Rate of rpsL (single experiment): 2.89 10^−6 and 3.85 10^−6 and 6.02 10^−6 and 6.54 10^−6
rpsL gene [2]
  genotoxicity / mutagenicity in words: high genotoxicity
rpsL gene [3]; 10 ppm mutagen in RCA reaction
  Mutation Rate of rpsL in the RCA reaction (mean ± SD): 2.49 10^−6 and 2.49 ± 0.692 10^−6
  Mutation Rate of rpsL in the RCA reaction (single experiment): 1.79 10^−6 and 2.02 10^−6 and 3.20 10^−6 and 2.96 10^−6
rpsL gene [3]; [4]
  Mutation Rate of rpsL in the RCA reaction (mean ± SD): 3.62 10^−6 and 3.62 ± 0.316 10^−6
  Mutation Rate of rpsL in the RCA reaction (single experiment): 3.47 10^−6 and 3.38 10^−6 and 3.55 10^−6 and 4.08 10^−6
rpsL gene [3]; [5]
  Mutation Rate of rpsL in the RCA reaction (mean ± SD): 5.54 10^−6 and 5.54 ± 2.444 10^−6
  Mutation Rate of rpsL in the RCA reaction (single experiment): 3.14 10^−6 and 3.96 10^−6 and 6.59 10^−6 and 8.46 10^−6

## CC[n+]1c(-c2ccccc2)c2cc(N)ccc2c2ccc(N)cc21 [EB, ethidium bromide, reference compound]
rpsL gene [1]; 10 ppm mutagen in PCR system
  Mutation Rate of rpsL in PCR (mean ± SD): 4.06 10^−6 and 4.06 ± 0.471 10^−6
  Mutation Rate of rpsL in PCR (single experiment): 4.23 10^−6 and 4.47 10^−6 and 4.15 10^−6 and 3.38 10^−6
rpsL gene [1]; 100 ppm mutagen in PCR system
  Mutation Rate of rpsL in PCR (mean ± SD): 6.01 10^−6 and 6.01 ± 1.319 10^−6
  Mutation Rate of rpsL in PCR (single experiment): 5.99 10^−6 and 7.69 10^−6 and 4.47 10^−6 and 5.88 10^−6
rpsL gene [1]; 1000 ppm mutagen in PCR system
  Mutation Rate of rpsL in PCR (mean ± SD): 10.35 10^−6 and 10.35 ± 1.143 10^−6
  Mutation Rate of rpsL in PCR (single experiment): 11.98 10^−6 and 9.32 10^−6 and 10.15 10^−6 and 9.94 10^−6
rpsL gene [2]; 10 ppm mutagen
  Mutation Rate of rpsL (mean ± SD): 3.71 10^−6 and 3.71 ± 0.502 10^−6
  Mutation Rate of rpsL (single experiment): 3.65 10^−6 and 4.38 10^−6 and 3.64 10^−6 and 3.16 10^−6
rpsL gene [2]; 100 ppm mutagen
  Mutation Rate of rpsL (mean ± SD): 5.78 10^−6 and 5.78 ± 0.728 10^−6
  Mutation Rate of rpsL (single experiment): 6.50 10^−6 and 6.05 10^−6 and 4.78 10^−6 and 5.79 10^−6
rpsL gene [2]; 1000 ppm mutagen
  Mutation Rate of rpsL (mean ± SD): 7.87 10^−6 and 7.87 ± 1.842 10^−6
  Mutation Rate of rpsL (single experiment): 9.82 10^−6 and 6.71 10^−6 and 5.94 10^−6 and 9.01 10^−6
rpsL gene [2]
  genotoxicity / mutagenicity in words: strong mutagenicity
rpsL gene [3]; 10 ppm mutagen in RCA reaction
  Mutation Rate of rpsL in the RCA reaction (mean ± SD): 3.81 10^−6 and 3.81 ± 0.335 10^−6
  Mutation Rate of rpsL in the RCA reaction (single experiment): 3.62 10^−6 and 4.31 10^−6 and 3.69 10^−6
rpsL gene [3]; [4]
  Mutation Rate of rpsL in the RCA reaction (mean ± SD): 6.38 10^−6 and 6.38 ± 0.915 10^−6
  Mutation Rate of rpsL in the RCA reaction (single experiment): 7.26 10^−6 and 6.66 10^−6 and 5.10 10^−6 and 6.49 10^−6
rpsL gene [3]; [5]
  Mutation Rate of rpsL in the RCA reaction (mean ± SD): 7.35 10^−6 and 7.35 ± 2.615 10^−6
  Mutation Rate of rpsL in the RCA reaction (single experiment): 6.86 10^−6 and 4.07 10^−6 and 10.34 10^−6 and 8.11 10^−6

## CCCN(CCC)N=O [NDPA, N-dipropylnitrosamine]
rpsL gene [1]; 10 ppm mutagen in PCR system
  Mutation Rate of rpsL in PCR (mean ± SD): 2.93 10^−6 and 2.93 ± 1.430 10^−6
  Mutation Rate of rpsL in PCR (single experiment): 1.83 10^−6 and 1.92 10^−6 and 3.05 10^−6 and 4.91 10^−6
rpsL gene [1]; 100 ppm mutagen in PCR system
  Mutation Rate of rpsL in PCR (mean ± SD): 4.98 10^−6 and 4.98 ± 1.330 10^−6
  Mutation Rate of rpsL in PCR (single experiment): 6.16 10^−6 and 3.08 10^−6 and 5.45 10^−6 and 5.21 10^−6
rpsL gene [1]; 1000 ppm mutagen in PCR system
  Mutation Rate of rpsL in PCR (mean ± SD): 6.85 10^−6 and 6.85 ± 1.316 10^−6
  Mutation Rate of rpsL in PCR (single experiment): 7.72 10^−6 and 8.12 10^−6 and 6.32 10^−6 and 5.25 10^−6
rpsL gene [2]; 10 ppm mutagen
  Mutation Rate of rpsL (mean ± SD): 2.67 10^−6 and 2.67 ± 0.909 10^−6
  Mutation Rate of rpsL (single experiment): 2.34 10^−6 and 1.70 10^−6 and 2.80 10^−6 and 3.86 10^−6
rpsL gene [2]; 100 ppm mutagen
  Mutation Rate of rpsL (mean ± SD): 4.75 10^−6 and 4.75 ± 1.417 10^−6
  Mutation Rate of rpsL (single experiment): 5.72 10^−6 and 2.66 10^−6 and 5.09 10^−6 and 5.53 10^−6
rpsL gene [2]; 1000 ppm mutagen
  Mutation Rate of rpsL (mean ± SD): 5.14 10^−6 and 5.14 ± 1.433 10^−6
  Mutation Rate of rpsL (single experiment): 7.05 10^−6 and 4.20 10^−6 and 5.41 10^−6 and 3.89 10^−6
rpsL gene [2]
  genotoxicity / mutagenicity in words: high genotoxicity
rpsL gene [3]; 10 ppm mutagen in RCA reaction
  Mutation Rate of rpsL in the RCA reaction (mean ± SD): 2.98 10^−6 and 2.98 ± 0.585 10^−6
  Mutation Rate of rpsL in the RCA reaction (single experiment): 2.18 10^−6 and 3.59 10^−6 and 3.05 10^−6 and 3.10 10^−6
rpsL gene [3]; [4]
  Mutation Rate of rpsL in the RCA reaction (mean ± SD): 5.59 10^−6 and 5.59 ± 2.287 10^−6
  Mutation Rate of rpsL in the RCA reaction (single experiment): 4.90 10^−6 and 3.85 10^−6 and 8.96 10^−6 and 4.67 10^−6
rpsL gene [3]; [5]
  Mutation Rate of rpsL in the RCA reaction (mean ± SD): 6.2 10^−6 and 6.20 ± 1.110 10^−6
  Mutation Rate of rpsL in the RCA reaction (single experiment): 7.78 10^−6 and 5.18 10^−6 and 5.96 10^−6 and 5.87 10^−6
